Source: US7629376B2, “3-substituted-5- and 6-aminoalkyl indole-2-carboxylic acid amides and related analogs as inhibitors of casein kinase I” (Aventis Pharmaceuticals Inc., priority 2004, dated 2009)

The compounds below were run on Mper1-luc Rat-1 fibroblasts (P2C4) (assay: Cellular Circadian Assay (Mper1-luc reporter period lengthening)). Conditions: effective micromolar concentration that induces a 1 hour lengthening of period.
Format: cell-based
Procedure: Cellular Circadian Assay Experimental Procedures
Stable transfection: Co-transfect Rat-1 fibroblast cultures at 30-50% confluence with vectors containing the Zeocin resistance selectable marker for stable transfection and an mPer1 promoter-driven luciferase reporter gene. After 24-48 hours, split the cultures onto 96 well plates and maintain in growth media supplemented with 50-100 μg/mL Zeocin (Invitrogen #45-0430) for 10-14 days. Assess Zeocin-resistant stable transfectants for reporter expression by supplementing growth media with 100 μM luciferin (Promega #E1603) and assaying luciferase activity on a TopCount scintillation counter (Packard Model #C384V00). […] Select Mper1-luc Rat-1 fibroblasts clone P2C4 for compound testing.
After synchronization, rinse cultures with 100 μL EMEM (Cellgro #10-010-CV) for 10 minutes at room temperature. […] Add compounds to be tested for circadian effects to CO2-independent media in 0.3% DMSO (final concentration).
Estimate in vivo luciferase activity by measuring relative light output on a TopCount scintillation counter (Packard Model #C384V00). Transfer plates from incubator to reader using an ORCA robotic arm (Beckman Instruments) and SAMI-NT automated scheduling software (Version 3.3; SAGIAN/Beckman Instruments).
Data Analysis Use Microsoft Excel and XLfit (Version 2.0.9; IDBS) to import, manipulate and graph data. Perform period analysis either by determining the interval between relative light output minima over several days or by Fourier Transform. […] Analyze the data by fitting a hyperbolic curve to the data expressed as period change (y-axis) versus the concentration of test compound (x-axis) in XLfit and interpolate the EC ? t+1h from this curve.

Compound | Cell Assay ECΔτ1h
3-(3-Chlorophenylsulfanyl)-5-methylaminomethyl-1H-indole-2-carboxylic acid amide | 5.67 µM
3-(3-Fluorophenylsulfanyl)-5-methylaminomethyl-1H-indole-2-carboxylic acid amide [Ie] | 3.34 µM
NCc1ccc2[nH]c(C(N)=O)c(Sc3ccccc3)c2c1 [Ia, 5-Aminomethyl-3-phenylsulfanyl-1H-indole-2-carboxylic acid amide] | 0.44 µM
NC(=O)c1[nH]c2ccc(CNc3ccccc3F)cc2c1Sc1ccccc1 [Iai, 5-[(2-Fluorophenylamino)methyl]-3-phenylsulfanyl-1H-indole-2-carboxylic acid amide] | 6.91 µM
CCCCCNCc1ccc2[nH]c(C(N)=O)c(Sc3ccccc3)c2c1 [Im, 5-Pentylaminomethyl-3-phenylsulfanyl-1H-indole-2-carboxylic acid amide] | 4.55 µM

The compounds below were run against T1, casein kinase 1ε (Homo sapiens, UniProt P49674) (assay: Casein Kinase Epsilon 33P-ATP Filter Plate Assay for Screening CK1ε Inhibitors). Conditions: not given.
T1 construct: made in house
Format: biochemical

T1 sequence (P49674 whole entry): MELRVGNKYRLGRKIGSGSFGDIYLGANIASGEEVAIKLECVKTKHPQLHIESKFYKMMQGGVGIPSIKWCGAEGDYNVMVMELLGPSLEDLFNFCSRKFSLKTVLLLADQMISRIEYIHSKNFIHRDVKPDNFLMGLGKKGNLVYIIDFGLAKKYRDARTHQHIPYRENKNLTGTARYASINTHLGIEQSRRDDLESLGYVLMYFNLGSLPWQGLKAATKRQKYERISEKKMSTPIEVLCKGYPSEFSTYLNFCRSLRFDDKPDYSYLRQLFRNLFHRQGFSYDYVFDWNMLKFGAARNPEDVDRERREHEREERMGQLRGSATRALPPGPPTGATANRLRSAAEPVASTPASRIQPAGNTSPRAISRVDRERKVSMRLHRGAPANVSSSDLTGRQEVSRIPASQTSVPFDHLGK

Ki | Compound
1770 nM | NC(=O)c1[nH]c2cc(CNCc3ccccc3[N+](=O)[O-])ccc2c1Sc1ccccc1 [IIl, 6-[(2-Nitrobenzylamino)methyl]-3-phenylsulfanyl-1H-indole-2-carboxylic acid amide]
4880 nM | NC(=O)c1[nH]c2cc(CNCc3ccc(C(F)(F)F)cc3)ccc2c1Sc1ccccc1 [IIm, 3-Phenalsulfanyl-6-[(4-trifluoromethylbenzylamino)methyl]-1H-indole-2-carboxylic acid amide]
4990 nM | NC(=O)c1[nH]c2cc(CNCc3cc(F)cc(C(F)(F)F)c3)ccc2c1Sc1ccccc1 [IIn, 6-[(3-Fluoro-5-trifluoromethylbenzylamino)methyl]-3-phenylsulfanyl-1H-indole-2-carboxylic acid amide]
170 nM | CC(N)C(=O)NCc1ccc2c(Sc3ccccc3)c(C(N)=O)[nH]c2c1 (stereo not shown) [IIo, 6-[(2-Aminopropionylamino)methyl]-3-phenylsulfanyl-1H-indole-2-carboxylic acid amide]
120 nM | NCC(=O)NCc1ccc2c(Sc3ccccc3)c(C(N)=O)[nH]c2c1 [IIp, 6-[(2-Aminoacetylamino)methyl]-3-phenylsulfanyl-1H-indole-2-carboxylic acid amide]
150 nM | CCC(C)C(N)C(=O)NCc1ccc2c(Sc3ccccc3)c(C(N)=O)[nH]c2c1 (stereo not shown) [IIq, 6-[(2-Amino-3-methylpentanoylamino)methyl]-3-phenylsulfanyl-1H-indole-2-carboxylic acid amide]
270 nM | NC(=O)CC[C@H](N)C(=O)NCc1ccc2c(Sc3ccccc3)c(C(N)=O)[nH]c2c1 [IIr, 2-Aminopentanedioic acid 5-amide 1-[(2-carbamoyl-3-phenylsulfanyl-1H-indol-6-ylmethyl)-amide]]
100 nM | NC(=O)c1[nH]c2cc(CNC(=O)[C@@H](N)Cc3c[nH]c4ccccc34)ccc2c1Sc1ccccc1 [IIs]
1280 nM | NC(=O)c1[nH]c2cc(CNC(=O)[C@@H](N)Cc3ccccc3)ccc2c1Sc1ccccc1 [IIt, 6-[(2-Amino-3-phenylpropionylamino)methyl]-3-phenylsulfanyl-1H-indole-2-carboxylic acid amide]
1010 nM | COc1ccc2ccccc2c1CNCc1ccc2c(Sc3ccccc3)c(C(N)=O)[nH]c2c1 [IIv]
290 nM | COc1ccc(CNCc2ccc3c(Sc4ccccc4)c(C(N)=O)[nH]c3c2)c(OC)c1 [IIw, 6-[(2,4-Dimethoxybenzylamino)methyl]-3-phenylsulfanyl-1H-indole-2-carboxylic acid amide]
1190 nM | NC(=O)c1[nH]c2cc(CNCc3cccc(Oc4ccccc4)c3)ccc2c1Sc1ccccc1 [IIx, 6-[(3-Phenoxybenzylamino)methyl]-3-phenylsulfanyl-1H-indole-2-carboxylic acid amide]
380 nM | COc1cccc(CNCc2ccc3c(Sc4ccccc4)c(C(N)=O)[nH]c3c2)c1 [IIy, 6-[(3-Methoxybenzylamino)methyl]-3-phenylsulfanyl-1H-indole-2-carboxylic acid amide]
570 nM | Cc1ccccc1CNCc1ccc2c(Sc3ccccc3)c(C(N)=O)[nH]c2c1 [IIz, 6-[(2-Methylbenzylamino)methyl]-3-phenylsulfanyl-1H-indole-2-carboxylic acid amide]
> 10000 nM | COc1cc(C#N)c(NCc2ccc3[nH]c(C(N)=O)c(Sc4ccccc4)c3c2)cc1OC [Iab, 5-[(2-Cyano-4,5-dimethoxyphenylamino)methyl]-3-phenylsulfanyl-1H-indole-2-carboxylic acid amide]
~10000 nM | NC(=O)c1[nH]c2ccc(CNc3cccc(C(F)(F)F)c3)cc2c1Sc1ccccc1 [Iac, 3-Phenylsulfanyl-5-[(3-trifluoromethyl-phenylamino)methyl]-1H-indole-2-carboxylic acid amide]
90 nM | CCNCc1ccc2[nH]c(C(N)=O)c(Sc3ccccc3)c2c1 [Iad, 5-Ethylaminomethyl-3-phenylsulfanyl-1H-indole-2-carboxylic acid amide]

Ki | Compound
580 nM | CCCNCc1ccc2[nH]c(C(N)=O)c(Sc3ccccc3)c2c1 [Iae, 3-Phenylsulfanyl-5-propylaminomethyl-1H-indole-2-carboxylic acid amide]
390 nM | CC(NCc1ccc2[nH]c(C(N)=O)c(Sc3ccccc3)c2c1)C(N)=O (stereo not shown) [Iaf, 5-[(1-Carbamoylethylamino)methyl]-3-phenylsulfanyl-1H-indole-2-carboxylic acid amide]
2230 nM | COc1cccc(NCc2ccc3[nH]c(C(N)=O)c(Sc4ccccc4)c3c2)c1 [Iag, 5-[(3-Methoxyphenylamino)methyl]-3-phenylsulfanyl-1H-indole-2-carboxylic acid amide]
4280 nM | CCCCc1ccc(NCc2ccc3[nH]c(C(N)=O)c(Sc4ccccc4)c3c2)cc1 [Iah, 5-[(4-Butylphenylamino)methyl]-3-phenylsulfanyl-1H-indole-2-carboxylic acid amide]
540 nM | CC(C)NCc1ccc2[nH]c(C(N)=O)c(Sc3ccccc3)c2c1 [Iaj, 5-(Isopropylaminomethyl)-3-phenylsulfanyl-1H-indole-2-carboxylic acid amide]
710 nM | NC(=O)c1[nH]c2ccc(CNCc3ccccc3)cc2c1Sc1ccccc1 [If, 5-(Benzylaminomethyl)-3-phenylsulfanyl-1H-indole-2-carboxylic acid amide]
4450 nM | CNCc1ccc2c(c1)c(Sc1ccccc1)c(C(N)=O)n2C [Ig, 1-Methyl-5-methylaminomethyl-3-phenylsulfanyl-1H-indole-2-carboxylic acid amide]
1740 nM | NC(=O)c1[nH]c2ccc(CN3CCC(CO)CC3)cc2c1Sc1ccccc1 [Ih, 5-(4-Hydroxymethylpiperidin-1-ylmethyl)-3-phenylsulfanyl-1H-indole-2-carboxylic acid amide]
240 nM | NC(=O)c1[nH]c2ccc(CN3CCOCC3)cc2c1Sc1ccccc1 [Ii, 5-Morpholin-4-ylmethyl-3-phenylsulfanyl-1H-indole-2-carboxylic acid amide]
200 nM | CCCNCc1ccc2[nH]c(C(N)=O)c(Sc3ccccc3)c2c1 [Ij, 3-Phenylsulfanyl-5-propylaminomethyl-1H-indole-2-carboxylic acid amide]
93 nM | CCCCNCc1ccc2[nH]c(C(N)=O)c(Sc3ccccc3)c2c1 [Ik, 5-Butylaminomethyl-3-phenylsulfanyl-1H-indole-2-carboxylic acid amide]
880 nM | NC(=O)c1[nH]c2ccc(CN3CCCCC3)cc2c1Sc1ccccc1 [Il, 3-Phenylsulfanyl-5-piperidin-1ylmethyl-1H-indole-2-carboxylic acid amide]
~10000 nM | NC(=O)c1[nH]c2ccc(CN3CCCC(C(N)=O)C3)cc2c1Sc1ccccc1 (stereo not shown) [Io, 5-(3-Carbamoylpiperidin-1-ylmethyl)-3-phenylsulfanyl-1H-indole-2-carboxylic acid amide]
600 nM | NC(=O)c1[nH]c2ccc(CNc3ccc4ncccc4c3)cc2c1Sc1ccccc1 [Iu, 3-Phenylsulfanyl-5-(quinolin-6-ylaminomethyl)-1H-indole-2-carboxylic acid amide]
360 nM | CC(CO)(CO)NCc1ccc2[nH]c(C(N)=O)c(Sc3ccccc3)c2c1 [Iv, 5-[(2-Hydroxy-1-hydroxymethyl-1-methyl-ethylamino)methyl]-3-phenylsulfanyl-1H-indole-2-carboxylic acid amide]
65 nM | NC(=O)c1[nH]c2ccc(CN3CCCC3CO)cc2c1Sc1ccccc1 (stereo not shown) [Iw, 5-(2-Hydroxymethyl-pyrrolidin-1-ylmethyl)-3-phenylsulfanyl-1H-indole-2-carboxylic acid amide]

Compound | Ki
NCc1ccc2[nH]c(C(N)=O)c(Sc3ccccc3)c2c1 [Ia, 5-Aminomethyl-3-phenylsulfanyl-1H-indole-2-carboxylic acid amide] | 70 nM
NC(=O)c1[nH]c2ccc(CN3CCN(c4ccc(F)cc4)CC3)cc2c1Sc1ccccc1 [Iaa, 5-[4-(4-Fluorophenyl)piperazin-1-ylmethyl]-3-phenylsulfanyl-1H-indole-2-carboxylic acid amide] | > 10000 nM
NC(=O)c1[nH]c2ccc(CNc3ccccc3F)cc2c1Sc1ccccc1 [Iai, 5-[(2-Fluorophenylamino)methyl]-3-phenylsulfanyl-1H-indole-2-carboxylic acid amide] | 6850 nM
CCCCCNCc1ccc2[nH]c(C(N)=O)c(Sc3ccccc3)c2c1 [Im, 5-Pentylaminomethyl-3-phenylsulfanyl-1H-indole-2-carboxylic acid amide] | 64 nM
NC(=O)c1[nH]c2ccc(CN3CCC4(CC3)OCCO4)cc2c1Sc1ccccc1 [Iz, 5-(1,4-Dioxa-8-aza-spiro[4,5]dec-8-ylmethyl)-3-phenylsulfanyl-1H-indole-2-carboxylic acid amide] | 320 nM
